These results are taken from patent US20250011313A1, “CCR6 RECEPTOR MODULATORS” (Idorsia Pharmaceuticals Ltd, priority 2021, published 2025).

One may read the IC50 as the concentration needed to halve the response being measured.

SMILES strings stand for the structures.

The assay concerns the target T1, human CCR6 (Homo sapiens, UniProt P51684).
T1 construct: expressed in transfected cells; host or cells: HEK-293
T1 sequence (P51684 1-374): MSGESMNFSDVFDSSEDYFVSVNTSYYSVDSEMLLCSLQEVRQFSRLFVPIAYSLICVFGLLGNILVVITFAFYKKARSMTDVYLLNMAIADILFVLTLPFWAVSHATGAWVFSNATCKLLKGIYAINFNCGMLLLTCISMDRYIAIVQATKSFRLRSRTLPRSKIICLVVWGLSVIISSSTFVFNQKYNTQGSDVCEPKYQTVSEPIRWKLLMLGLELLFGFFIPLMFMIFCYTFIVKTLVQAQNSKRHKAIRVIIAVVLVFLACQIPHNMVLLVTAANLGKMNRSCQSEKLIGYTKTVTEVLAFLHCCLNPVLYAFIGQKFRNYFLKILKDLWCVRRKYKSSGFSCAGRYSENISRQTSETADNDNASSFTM
In words: FLIPR assay (calcium flux, inhibition of CCL20 agonist response). The assay is classed as cell-based. The following applies: HEK-293 cells expressing human CCR6; agonist CCL20 10 nM; 30 min preincubation; mean values if determined several times. The procedure:
FLIPR assay: The bioactivity of compounds is tested in a fluorometric imaging plate reader (FLIPR: Molecular Devices) using engineered HEK-293 cells expressing the human CCR6 (GenBank: AY242126). Frozen cells are plated on Poly-L-Lysine precoated 384-well plates 2 days prior to bioassay in DMEM medium supplemented with 10% FCS and 1% Penicillin-Streptomycin. At the day of bioassay, cell supernatant is discarded and cells are dye loaded for 30 minutes at room temperature in the dark with Fluo-8-AM (Focus Biomolecules) in Hanks Balanced Salt Solution (Gibco), buffered with 20 mM Hepes at pH 6.75 and supplemented with 0.05% BSA. This buffer, but lacking the dye, is also used for washing and compound dilution steps (assay buffer). Cells are washed free of excess dye with a wash-station (Biotek), leaving 40 microliter of assay buffer at the end. Cells were incubated for 15 minutes at room temperature in the dark, before adding compounds. Stock solutions of test compounds are made up at a concentration of 10 mM in DMSO, and serially diluted first in DMSO and then transferred in assay buffer to concentrations required for inhibition dose response curves. After a 45 minute incubation period in assay buffer at room temperature, 10 microliters of each compound dilution are transferred from a compound plate to the plate containing the recombinant cells in the FLIPR instrument according to the manufacturer's instructions. After cells and compounds were preincubated for 30 minutes at room temperature in the dark, 10 microliter agonist CCL20 (Peprotech) at a final concentration of 10 nM is added, again using the FLIPR instrument. Changes in fluorescence are monitored before and after addition of the test compounds and agonist. Emission peak values above base level after CCL20 addition are exported after base line subtraction. The calculated IC50 values may fluctuate depending on the daily assay performance. Fluctuations of this kind are known to those skilled in the art. In the case where IC50 values have been determined several times for the same compound, mean values are given.
(A change in cytosolic calcium serves as a functional read-out for many receptors and channels.)
For `CC(=O)NC1CCC(c2nc(-c3cncc([C@@](O)(c4ccc(C(C)C)cc4)C4(C)CN(C)C4)c3)no2)CC1` (single isomer, unassigned) [Example 8, cis- or trans-N-[4-(3-{5-[(R)-(1,3-Dimethyl-azetidin-3-yl)-hydroxy-(4-isopropyl-phenyl)-methyl]-pyridin-3-yl}-[1,2,4]oxadiazol-5-yl)-cyclohexyl]-acetamide], the IC50 is 52.2 nM.

On to `CC(C)c1ccc([C@](O)(c2cncc(C#CC(C)(O)c3ccncn3)c2)C2(C)CN(C)C2)cc1` (single isomer, unassigned) [Example 10, (R)- or (S)-4-{5-[(R)-(1,3-Dimethyl-azetidin-3-yl)-hydroxy-(4-isopropyl-phenyl)-methyl]-pyridin-3-yl}-2-pyrimidin-4-yl-but-3-yn-2-ol], for which the IC50 came out at 71.5 nM.

Regarding `CN1CC(C)([C@](O)(c2ccc(CC(F)(F)F)cc2)c2cncc(-c3noc([C@H]4CC[C@H](O)CC4)n3)c2)C1` [Example 1, trans-4-[3-(5-{(R)-(1,3-Dimethyl-azetidin-3-yl)-hydroxy-[4-(2,2,2-trifluoro-ethyl)-phenyl]-methyl}-pyridin-3-yl)-[1,2,4]oxadiazol-5-yl]-cyclohexanol], the IC50 is 83 nM.

Consider `CN1CC(C)([C@](O)(c2ccc(CC(F)(F)F)cc2)c2cncc(-c3noc(C45CC(CO)(C4)C5)n3)c2)C1` [Example 2, (R)-(1,3-Dimethyl-azetidin-3-yl)-{5-[5-(3-hydroxymethyl-bicyclo[1.1.1]pent-1-yl)-[1,2,4]oxadiazol-3-yl]-pyridin-3-yl}-[4-(2,2,2-trifluoro-ethyl)-phenyl]-methanol], for which the IC50 came out at 140 nM.

In the case of `CC(=O)NC12CC(c3nc(-c4cncc([C@@](O)(c5ccc(C(C)C)cc5)C5(C)CN(C)C5)c4)no3)(C1)C2` [Example 3, N-[3-(3-{5-[(R)-(1,3-Dimethyl-azetidin-3-yl)-hydroxy-(4-isopropyl-phenyl)-methyl]-pyridin-3-yl}-[1,2,4]oxadiazol-5-yl)-bicyclo[1.1.1]pent-1-yl]-acetamide], the IC50 was found to be 55.7 nM.

In the case of `CC(C)c1ccc([C@](O)(c2cncc(-c3noc(C45CCC(O)(CC4)CC5)n3)c2)C2(C)CN(C)C2)cc1` [Example 4, 4-(3-{5-[(R)-(1,3-Dimethyl-azetidin-3-yl)-hydroxy-(4-isopropyl-phenyl)-methyl]-pyridin-3-yl}-[1,2,4]oxadiazol-5-yl)-bicyclo[2.2.2]octan-1-ol], the IC50 was 23.9 nM.

`CN1CC(C)([C@](O)(c2ccc(CC(F)(F)F)cc2)c2cncc(-c3nc(C(C)(C)CO)no3)c2)C1` [Example 5, 2-[5-(5-{(R)-(1,3-Dimethyl-azetidin-3-yl)-hydroxy-[4-(2,2,2-trifluoro-ethyl)-phenyl]-methyl}-pyridin-3-yl)-[1,2,4]oxadiazol-3-yl]-2-methyl-propan-1-ol]: the IC50 was found to be 144 nM.

With `CC(=O)N1CC2(CC(c3nc(-c4cncc([C@@](O)(c5ccc(C(C)C)cc5)C5(C)CN(C)C5)c4)no3)C2)C1` [Example 6, 1-[6-(3-{5-[(R)-(1,3-Dimethyl-azetidin-3-yl)-hydroxy-(4-isopropyl-phenyl)-methyl]-pyridin-3-yl}-[1,2,4]oxadiazol-5-yl)-2-aza-spiro[3.3]hept-2-yl]-ethanone], the IC50 amounted to 111 nM.

In the case of `CCC(=O)N[C@H]1CC[C@H](c2nc(-c3cncc([C@@](O)(c4ccc(C(C)C)cc4)C4(C)CN(C)C4)c3)no2)CC1` [Example 7, trans-N-[4-(3-{5-[(R)-(1,3-Dimethyl-azetidin-3-yl)-hydroxy-(4-isopropyl-phenyl)-methyl]-pyridin-3-yl}-[1,2,4]oxadiazol-5-yl)-cyclohexyl]-propionamide], the IC50 was 78.8 nM.

Turning to `CN1CC(C)([C@](O)(c2ccc(CC(F)(F)F)cc2)c2cncc(-c3nc(C45CC(CO)(C4)C5)no3)c2)C1` [Example 9, (R)-(1,3-Dimethyl-azetidin-3-yl)-{5-[3-(3-hydroxymethyl-bicyclo[1.1.1]pent-1-yl)-[1,2,4]oxadiazol-5-yl]-pyridin-3-yl}-[4-(2,2,2-trifluoro-ethyl)-phenyl]-methanol], the IC50 was determined as 146 nM.

As for `CC(C)c1ccc([C@](O)(c2cncc(C#C[C@H]3CC[C@H](O)CC3)c2)C2(C)CN(C)C2)cc1` [Example 11, trans-4-{5-[(R)-(1,3-Dimethyl-azetidin-3-yl)-hydroxy-(4-isopropyl-phenyl)-methyl]-pyridin-3-ylethynyl}-cyclohexanol], the IC50 amounted to 28.7 nM.

With `CC(C)c1ccc([C@](O)(c2cncc(C#C[C@H]3CC[C@@H](O)CC3)c2)C2(C)CN(C)C2)cc1` [Example 12, cis-4-{5-[(R)-(1,3-Dimethyl-azetidin-3-yl)-hydroxy-(4-isopropyl-phenyl)-methyl]-pyridin-3-ylethynyl}-cyclohexanol], the IC50 is 25.4 nM.

On to `CC(C)c1ccc([C@](O)(c2cncc(-c3noc(C45CCC(C(N)=O)(CC4)CC5)n3)c2)C2(C)CN(C)C2)cc1` [Example 13, 4-(3-{5-[(R)-(1,3-Dimethyl-azetidin-3-yl)-hydroxy-(4-isopropyl-phenyl)-methyl]-pyridin-3-yl}-[1,2,4]oxadiazol-5-yl)-bicyclo[2.2.2]octane-1-carboxylic acid amide], for which the IC50 is 37.5 nM.

As for `CC(C)c1ccc([C@](O)(c2cncc(-c3noc(C4CCC(C(N)=O)CC4)n3)c2)C2(C)CN(C)C2)cc1` (stereo partly drawn) [Example 14, 4-(3-{5-[(R)-(1,3-Dimethyl-azetidin-3-yl)-hydroxy-(4-isopropyl-phenyl)-methyl]-pyridin-3-yl}-[1,2,4]oxadiazol-5-yl)-cyclohexanecarboxylic acid amide], the concentration for half-maximal inhibition (IC50) was found to be 46.3 nM.

On to `CN1CC(C)([C@](O)(c2ccc(CC(F)(F)F)cc2)c2cncc(-c3noc(C45CCC(C(N)=O)(CC4)CC5)n3)c2)C1` [Example 15, 4-[3-(5-{(R)-(1,3-Dimethyl-azetidin-3-yl)-hydroxy-[4-(2,2,2-trifluoro-ethyl)-phenyl]-methyl}-pyridin-3-yl)-[1,2,4]oxadiazol-5-yl]-bicyclo[2.2.2]octane-1-carboxylic acid amide], for which the IC50 was 65.3 nM.

Take `CC(=O)N[C@H]1CC[C@H](c2nc(-c3cncc([C@@](O)(c4ccc(CC(F)(F)F)cc4)C4(C)CN(C)C4)c3)no2)CC1` [Example 16, N-{4-[3-(5-{(R)-(1,3-Dimethyl-azetidin-3-yl)-hydroxy-[4-(2,2,2-trifluoro-ethyl)-phenyl]-methyl}-pyridin-3-yl)-[1,2,4]oxadiazol-5-yl]-trans-cyclohexyl}-acetamide]: the IC50 worked out at 226 nM.
